Data published in ChEMBL document CHEMBL3044907, “Sensitivity of Fusarium verticillioides isolates from rice to a novel cyanoacrylate fungicide” (Crop Prot, 2012).

Assays:
Fusarium verticillioides [1] = assay: (§1) Fungicidal activity against Fusarium verticilliodes isolate JS04 in rice seeds harvested from bakane diseased plants assessed as number of seedlings abnormally elongated or exhibiting symptoms of damping-off at 12.5 ug/ml at 30 degC incubated for 72 hr measured after 3 days under greenhouse trials (reference value: 16.2%); format: functional
Fusarium verticillioides [2] = assay: as §1, with “8.33” for “12.5”; format: functional
Fusarium verticillioides [3] = assay: as §1, with “YZ04” for “JS04”, “44.2%)” for “16.2%)”; format: functional
Fusarium verticillioides [4] = assay: as §1, with “25” for “12.5”; format: functional
Oryza sativa [5] = assay: Effect on germination of healthy Oryza sativa (rice) seed cultivar Liangyou 6326 at 6.25 to 25 ug/ml at 25 degC after 72 hr; format: ADME, organism-based; settings: in vivo
Fusarium verticillioides [6] = assay: as §1, with “JS06” for “JS04”, “25.2%)” for “16.2%)”; format: functional
Fusarium verticillioides [7] = assay: as §1, with “YZ26” for “JS04”, “49.3%)” for “16.2%)”; format: functional
Fusarium verticillioides [8] = assay: as §1, with “YZ13” for “JS04”, “6.25” for “12.5”, “26.8%)” for “16.2%)”; format: functional
Oryza sativa [9] = assay: Effect on germination of healthy Oryza sativa (rice) seed cultivar Xinliangyou 6 at 6.25 to 25 ug/ml at 25 degC after 72 hr; format: ADME, organism-based; settings: in vivo
Fusarium verticillioides [10] = assay: as §1, with “N01” for “JS04”, “6.25” for “12.5”, “27.4%)” for “16.2%)”; format: functional
Fusarium verticillioides [11] = assay: as §1, with “YZ11” for “JS04”, “6.25” for “12.5”, “33.7%)” for “16.2%)”; format: functional
Fusarium verticillioides [12] = assay: as §1, with “N04” for “JS04”, “6.25” for “12.5”, “14.5%)” for “16.2%)”; format: functional
Fusarium verticillioides [13] = assay: as §1, with “JS07” for “JS04”, “8.33” for “12.5”, “33.8%)” for “16.2%)”; format: functional
Fusarium verticillioides [14] = assay: as §1, with “YZ11” for “JS04”, “25” for “12.5”, “33.7%)” for “16.2%)”; format: functional
Fusarium verticillioides [15] = assay: as §1, with “YZ11” for “JS04”, “8.33” for “12.5”, “33.7%)” for “16.2%)”; format: functional
Fusarium verticillioides [16] = assay: as §1, with “N06” for “JS04”, “25” for “12.5”, “9.6%)” for “16.2%)”; format: functional
Fusarium verticillioides [17] = assay: as §1, with “N05” for “JS04”, “8.33” for “12.5”, “6.2%)” for “16.2%)”; format: functional
Fusarium verticillioides [18] = assay: as §1, with “JS08” for “JS04”, “8.33” for “12.5”, “13.0%)” for “16.2%)”; format: functional
Fusarium verticillioides [19] = assay: as §1, with “JS07” for “JS04”, “25” for “12.5”, “33.8%)” for “16.2%)”; format: functional
Fusarium verticillioides [20] = assay: as §1, with “YZ07” for “JS04”, “6.25” for “12.5”, “43.2%)” for “16.2%)”; format: functional
Fusarium verticillioides [21] = assay: as §1, with “YZ08” for “JS04”, “25” for “12.5”, “19.8%)” for “16.2%)”; format: functional
Fusarium verticillioides [22] = assay: as §1, with “YZ04” for “JS04”, “6.25” for “12.5”, “44.2%)” for “16.2%)”; format: functional
Fusarium verticillioides [23] = assay: as §1, with “JS07” for “JS04”, “6.25” for “12.5”, “33.8%)” for “16.2%)”; format: functional
Fusarium verticillioides [24] = assay: as §1, with “JS02” for “JS04”, “6.25” for “12.5”, “24.9%)” for “16.2%)”; format: functional
Fusarium verticillioides [25] = assay: as §1, with “N05” for “JS04”, “6.25” for “12.5”, “6.2%)” for “16.2%)”; format: functional
Fusarium verticillioides [26] = assay: as §1, with “YZ13” for “JS04”, “25” for “12.5”, “26.8%)” for “16.2%)”; format: functional
Fusarium verticillioides [27] = assay: as §1, with “JS09” for “JS04”, “32.6%)” for “16.2%)”; format: functional
Fusarium verticillioides [28] = assay: as §1, with “YZ10” for “JS04”, “8.33” for “12.5”, “49.2%)” for “16.2%)”; format: functional
Fusarium verticillioides [29] = assay: as §1, with “JS09” for “JS04”, “6.25” for “12.5”, “32.6%)” for “16.2%)”; format: functional
Fusarium verticillioides [30] = assay: as §1, with “N02” for “JS04”, “8.33” for “12.5”, “41.2%)” for “16.2%)”; format: functional
Fusarium verticillioides [31] = assay: as §1, with “JS03” for “JS04”, “8.33” for “12.5”, “15.8%)” for “16.2%)”; format: functional
Fusarium verticillioides [32] = assay: as §1, with “N06” for “JS04”, “6.25” for “12.5”, “9.6%)” for “16.2%)”; format: functional
Fusarium verticillioides [33] = assay: as §1, with “N01” for “JS04”, “8.33” for “12.5”, “27.4%)” for “16.2%)”; format: functional
Fusarium verticillioides [34] = assay: as §1, with “YZ22” for “JS04”, “22.5%)” for “16.2%)”; format: functional
Fusarium verticillioides [35] = assay: as §1, with “YZ04” for “JS04”, “8.33” for “12.5”, “44.2%)” for “16.2%)”; format: functional
Fusarium verticillioides [36] = assay: as §1, with “YZ10” for “JS04”, “49.2%)” for “16.2%)”; format: functional

Measured: Activity

CCOC(=O)/C(C#N)=C(/N)c1ccccc1
Non-toxic: Oryza sativa [5] | Oryza sativa [9]
1.3%: Fusarium verticillioides [22] | Fusarium verticillioides [23]
2%: Fusarium verticillioides [24]
1%: Fusarium verticillioides [2]
0.4%: Fusarium verticillioides [25]
4.2%: Fusarium verticillioides [29]
1.6%: Fusarium verticillioides [20]
1.8%: Fusarium verticillioides [12]
4.5%: Fusarium verticillioides [11]
0.5%: Fusarium verticillioides [34]
0%: Fusarium verticillioides [1] | Fusarium verticillioides [3] | Fusarium verticillioides [4] | Fusarium verticillioides [6] | Fusarium verticillioides [7] | Fusarium verticillioides [13] | Fusarium verticillioides [14] | Fusarium verticillioides [16] | Fusarium verticillioides [17] | Fusarium verticillioides [18] | Fusarium verticillioides [19] | Fusarium verticillioides [21] | Fusarium verticillioides [26] | Fusarium verticillioides [27] | Fusarium verticillioides [28] | Fusarium verticillioides [30] | Fusarium verticillioides [31] | Fusarium verticillioides [33] | Fusarium verticillioides [35] | Fusarium verticillioides [36]
0.8%: Fusarium verticillioides [8] | Fusarium verticillioides [10] | Fusarium verticillioides [15] | Fusarium verticillioides [32]
